Holding throughout (test): growth of human tumour cells (NCI), 48 h
The subject of experiment [1] is RPMI-8226 leukemia.
The subject of experiment [2] is UACC-62 melanoma.
Experiment [3] has as its system OVCAR-5 ovarian.
The test system of experiment [4] is DU-145 prostate.
The test system of experiment [5] is OVCAR-8 ovarian.
For experiment [6], the system named is SF-539 CNS.
Experiment [7] has as its system M14 melanoma.
Experiment [8] concerns NCI-H226 lung.
The subject of experiment [9] is CAKI-1 renal.
Experiment [10] has as its system NCI-H522 lung.

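Where inhibition never reached the appropriate level, the endpoint shown equals the highest concentration tested. Otherwise, values were interpolated linearly from a five-concentration, 48-hour dose response in 96-well plates. The concentration for 50% growth inhibition is given as GI50. The concentration for full growth arrest is given as TGI.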

As to `COc1cc(OC)cc(-c2n/c(=C\c3c(O)[nH]c4ccc(Cl)cc34)cc3c2=Nc2ccccc2-3)c1`, the GI50 in [1] was 16.3 µM; in experiment [2], 16.9 µM; in [3], 20.5 µM; in experiment [4], 2.91 µM; in experiment [5] it was 3.51 µM; in [6], 20.4 µM. The GI50 in experiment [7] was 4.01 µM; in [8], 22.8 µM; in experiment [9] it was 12.9 µM; in experiment [10], 3.09 µM. In addition, the TGI in experiment [1] is > 100 µM; in [2], 35.2 µM; in experiment [3], 63.8 µM; in [4], 6.88 µM; in experiment [5], 15.5 µM; in experiment [6], 45.8 µM. The TGI was determined as 13.7 µM in experiment [7], 59.8 µM in experiment [8], 30.5 µM in experiment [9] and 10.5 µM in experiment [10].

On to `COc1cc(C(c2cccc3ccccc23)N2C(=O)CCC2C(=O)NCc2ccccc2)cc(OC)c1OC` (stereo unspecified), for which the TGI in experiment [1], in experiment [2], in experiment [3], in experiment [4], in experiment [5] and in [6] was > 100 µM each time. Also, the TGI in experiment [7], in experiment [8], in experiment [9] and in experiment [10] was > 100 µM each time.

Turning to `COc1ccc2c(c1)CC1Cc3ccccc3CCN1C2` (stereo unspecified), the TGI in [1] was 92.3 µM; in [2], > 100 µM; in [3], > 100 µM; in experiment [4] it was > 100 µM; in [5] it was > 100 µM; in experiment [6], > 100 µM. Besides, the TGI was > 100 µM in [7], > 100 µM in experiment [8], 59.1 µM in experiment [9] and 63.6 µM in experiment [10].

Consider `Nc1ccc(-c2nc3ccc(F)cc3s2)cc1`, for which the TGI in experiment [1] is 91.7 µM; in [2], 31.3 µM; in [3] it was 73.6 µM; in [4], 98.6 µM; in experiment [5] it was > 100 µM; in experiment [6], > 100 µM. The TGI in experiment [7] was > 100 µM; in [8] it was > 100 µM; in experiment [9] it was 95.5 µM; in [10] it was > 100 µM. Also, the GI50 is 27.2 µM in experiment [3] and 47 µM in [8].

In the case of `CN(CCc1ccc(Cl)c(Cl)c1)CCN(C)CCN1CCCC1`, the TGI came out at 8.97 µM in experiment [1]; 3.74 µM in experiment [2]; 43.3 µM in experiment [3]; 86.4 µM in [4]; 62 µM in experiment [5]; 17.5 µM in [6]. The TGI in experiment [7] turned out to be 9.88 µM; in [8] it was 38.5 µM; in experiment [9] it was 32.1 µM; in experiment [10], 20.9 µM.

For the compound `COc1cc(/C=C2\Cc3cc(OC)c(OC)cc3C2=O)cc(OC)c1`, the TGI in experiment [1] is > 100 µM; in experiment [2], > 89.4 µM; in experiment [3], > 100 µM; in experiment [4], > 100 µM; in [5], > 67.5 µM; in experiment [6], > 42.7 µM. In addition, the TGI in experiment [7], in experiment [8], in experiment [9] and in experiment [10] was > 100 µM in each case.

`CCOP(=O)(OCC)C1(O)CC(n2cc(C)c(=O)[nH]c2=O)OC1CO` (stereo unspecified): the TGI in experiment [1], in [2], in experiment [3], in experiment [4], in experiment [5] and in experiment [6] was > 100 µM each time. The TGI in experiment [7], in [8], in experiment [9] and in [10] was > 100 µM throughout.

`CC(C)(C)c1cc(C(=O)/C=C/c2ccn[nH]2)cc(C(C)(C)C)c1O`: the TGI came to 3.37 µM in [1]; 8.37 µM in experiment [2]; 13.6 µM in experiment [3]; 7.52 µM in experiment [4]; 6.02 µM in [5]; 9.07 µM in [6]. The TGI in [7] was 3.51 µM; in [8], 11.6 µM; in experiment [9], 6.98 µM; in experiment [10], 2.73 µM.

With `c1csc(-c2csc(-c3ccsc3)c2)c1`, the TGI in experiment [1] is > 100 µM; in [2], > 100 µM; in experiment [3], > 100 µM; in experiment [4], > 100 µM; in [5], > 100 µM; in [6] it was 98.6 µM. Further, the TGI in [7], in experiment [8], in experiment [9] and in experiment [10] was > 100 µM throughout.

Regarding `CNC(=S)N/N=C(\C)c1nc2ncccc2[nH]1`, the TGI in experiment [1], in experiment [3], in [4], in experiment [5], in [6] and in experiment [7] was > 100 µM each time. In addition, the TGI was > 90.9 µM in experiment [8], 99.1 µM in experiment [9] and > 73.3 µM in experiment [10].

`O=C1NC2CCCCC2N=C1/C(C(=O)c1ccccc1)=C(\O)c1ccccc1` (stereo unspecified): the TGI in experiment [1] was > 100 µM; in experiment [2] it was 68.9 µM; in [3], > 100 µM; in experiment [4] it was > 100 µM; in experiment [5] it was 86.6 µM; in experiment [6] it was > 100 µM. Also, the TGI was > 100 µM in experiment [7], 46.8 µM in [8], > 100 µM in experiment [9] and 61.9 µM in experiment [10].

Regarding `N=C(N)SCCCN`, the TGI was > 68.9 µM in [1]; 35 µM in experiment [2]; > 100 µM in [3]; 51.1 µM in experiment [4]; > 100 µM in experiment [5]; 30.9 µM in experiment [6]. In addition, the TGI was 14.2 µM in experiment [7], 66 µM in experiment [8], > 69.9 µM in experiment [9] and 25.5 µM in [10].

For `[N-]=[N+]=NC[C@H]1OCO[C@H](CN=[N+]=[N-])[C@H]2OCCOCCOc3ccccc3OCCOCCO[C@@H]21`, the TGI in experiment [1], in experiment [2], in experiment [4], in experiment [5], in [6] and in [7] was > 100 µM in each case. Also, the TGI in experiment [8], in experiment [9] and in [10] was > 100 µM each time.

On to `COc1ccc2c(-c3ccc(OCCN(C)C)cc3)c(Oc3ccc(Cl)cc3)c(=O)oc2c1`, for which the TGI in experiment [1] is 14.8 µM; in experiment [2], 7.52 µM; in experiment [3] it was 36.8 µM; in [4] it was 32.7 µM; in experiment [5], > 46.9 µM; in experiment [6], > 30.8 µM. For the same compound, the TGI in experiment [7] is 3.23 µM; in experiment [8] it was > 55.7 µM; in experiment [9], 31 µM; in [10], 12.1 µM.

As for `Cc1nn(C(=O)c2ccncc2)c2c1C(c1cccc([N+](=O)[O-])c1)SC(N)=N2` (stereo unspecified), the TGI in experiment [1], in [2], in experiment [3], in experiment [4], in experiment [5] and in experiment [6] was > 10 µM throughout. In addition, the TGI in experiment [7], in [8], in experiment [9] and in [10] was > 10 µM throughout.

`Cc1cc(C)c2c(=N)c3ccccc3n(CCCCCCO)c2n1`: the TGI in experiment [1] stood at 4.29 µM; in [2] it was 8.89 µM; in experiment [3] it was 21.2 µM; in experiment [4], 25.3 µM; in experiment [5] it was 5.49 µM; in experiment [6] it was 9.48 µM. For the same compound, the TGI in experiment [7] is 16.6 µM; in experiment [8], 11.1 µM; in [9] it was 8.31 µM; in experiment [10], 3.14 µM.

Regarding `CC1(C)CCCCCCCCCC(C)(CCCCCCCCCCCCO)C1=O` (stereo unspecified), the TGI in [1] is 42.2 µM; in [2] it was 33.7 µM; in [3], 34.1 µM; in [4], 32 µM; in [5], 28.4 µM; in [6] it was 32.5 µM. Further, the TGI in experiment [8] was 22.5 µM; in experiment [9], 41.5 µM; in experiment [10] it was 30.3 µM.

Turning to `CSc1ncc2c(n1)-c1ccccc1OC2NC(C)(C)C` (stereo unspecified), the TGI in experiment [1], in experiment [2], in experiment [3], in experiment [4], in [5] and in [6] was > 100 µM each time. For the same compound, the TGI in experiment [7] was > 100 µM; in experiment [8] it was > 100 µM; in experiment [9], > 100 µM; in experiment [10] it was 74.5 µM.

Regarding `O/N=C1/C2CC3CC1(c1ccccc1)CC(/C3=N/O)/C2=N\O` (stereo unspecified), the TGI in experiment [1], in experiment [2], in experiment [3], in experiment [4], in experiment [5] and in experiment [6] was > 100 µM each time. Also, the TGI in experiment [7], in experiment [8], in [9] and in experiment [10] was > 100 µM each time.

In the case of `CCNc1ncnc2c1nnn2CC`, the TGI in [1], in [2], in [4], in experiment [5], in experiment [6] and in experiment [7] was > 100 µM throughout. In addition, the TGI in [8], in [9] and in experiment [10] was > 100 µM in each case.

Consider `Cc1cc(O)ccc1C1(c2ccc(F)cc2)OC(=O)c2ccccc21` (stereo unspecified), for which the TGI in experiment [1] was > 62.1 µM; in [2], 16.9 µM; in experiment [3], 20.1 µM; in experiment [4], 16.1 µM; in experiment [5], 2.05 µM; in [6], 9.29 µM. The TGI in experiment [7] is 27.1 µM; in experiment [8], 8.28 µM; in experiment [9], 15.3 µM; in [10], 15.6 µM.

Take `COc1ccc2c(c1OC)C(=O)O[C@@H]2[C@H]1c2cc3c(cc2CCN1C)OCO3`: the TGI in experiment [1], in experiment [2], in [3], in experiment [4], in experiment [5] and in experiment [6] was > 100 µM in each case. The TGI in experiment [7], in [8], in experiment [9] and in [10] was > 100 µM in each case.

Take `CC(=O)O[C@H]1CN(S(=O)(=O)c2ccc(C)cc2)C[C@@H]1C1CCCCC1`: the TGI in [1] was 79.7 µM; in [2], 61.7 µM; in experiment [3] it was > 100 µM; in [4], > 100 µM; in experiment [5] it was 73.2 µM; in experiment [6], 10.5 µM. Further, the TGI in experiment [7] worked out at 37.3 µM; in experiment [8] it was 48.9 µM; in experiment [9], 83.7 µM.

`Oc1ccc(Cl)cc1C1=N/C(=N\C/N=C2\N=C(c3cc(Cl)ccc3O)CC(c3ccccc3)N2)NC(c2ccccc2)C1` (stereo unspecified): the TGI in [1], in experiment [2], in experiment [3], in [4], in experiment [5] and in experiment [6] was > 100 µM throughout. For the same compound, the TGI in experiment [7], in [8] and in experiment [9] was > 100 µM each time.

On to `ONC1=Nc2ccccc2OCc2cc(Br)c(Br)cc2COc2ccccc2N=C1NO`, for which the TGI in [1] is 43.4 µM; in [2], 35.7 µM; in [3], 42.8 µM; in experiment [4], 29.3 µM; in experiment [5] it was > 47.5 µM; in experiment [7], > 54.2 µM. The TGI in [8] was > 52.7 µM; in experiment [9] it was 29.3 µM; in experiment [10], 41.9 µM.

As for `Cc1ccc(SC[C@@]2(C(F)F)NC(=O)NC2=O)cc1`, the TGI in [1], in experiment [2], in experiment [3], in experiment [4], in experiment [5] and in [7] was > 100 µM each time. The TGI in experiment [8], in experiment [9] and in experiment [10] was > 100 µM in each case.

Consider `COc1cc(OC)cc(-n2c(N)c(-c3nc4ccccc4n3C)c3ccc([N+](=O)[O-])cc3c2=O)c1`, for which the TGI in experiment [1], in experiment [2], in experiment [4], in experiment [5], in [8] and in [9] was > 100 µM each time. Further, in experiment [10], the TGI is > 100 µM.

These data come from PubChem BioAssay (NCI).
